Data reported in US10206394B2, “Herbicidal compounds” (Syngenta Participations AG, priority 2014, dated 2019).
Where two headings read alike, the source gives them in different places.

Experiments:
Test in all cases: Glasshouse assay for herbicidal activity (pre- and post-emergence), percentage phytotoxicity
Format in all cases: in vivo
Avena fatua (AVEFA) = details: Avena fatua, rate 250 g/ha
Procedure, shortened: (§1)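 Visual phytotoxicity score, 0% = undamaged to 100% = total kill, read 20 days after treatment for PRE and 15 days for POST. Pots of standard soil; treatment at day 1 (PRE) or roughly day 12 (POST). Glasshouse: 16 h photoperiod, 65% RH, 24/18 or 20/16 °C by climate type.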

[1] = tested on: Echinochloa crus-galli (ECHCG); details: Echinochloa crus-galli, rate 250 g/ha
Procedure, shortened: as §1

Lolium perenne (LOLPE) = details: Lolium perenne, rate 250 g/ha
Procedure, shortened: as §1

[2] = tested on: Alopecurus myosuroides (ALOMY); details: Alopecurus myosuroides, rate 250 g/ha
Procedure, shortened: as §1

[3] = post-emergence, 360 h, POST-emergence, visual score 15 DAA (100%=total damage, 0%=no damage), read-out: Post-emergence herbicidal activity (percentage phytotoxicity) AVEFA POST
[4] = pre-emergence, 480 h, PRE-emergence, visual score 20 DAA (100%=total damage, 0%=no damage), read-out: Pre-emergence herbicidal activity (percentage phytotoxicity) AVEFA PRE
[5] = post-emergence, 360 h, POST-emergence, visual score 15 DAA (100%=total damage, 0%=no damage), read-out: Post-emergence herbicidal activity (percentage phytotoxicity) ECHCG POST
[6] = pre-emergence, 480 h, PRE-emergence, visual score 20 DAA (100%=total damage, 0%=no damage), read-out: Pre-emergence herbicidal activity (percentage phytotoxicity) ECHCG PRE
[7] = post-emergence, 360 h, POST-emergence, visual score 15 DAA (100%=total damage, 0%=no damage), read-out: Post-emergence herbicidal activity (percentage phytotoxicity) LOLPE POST
[8] = pre-emergence, 480 h, PRE-emergence, visual score 20 DAA (100%=total damage, 0%=no damage), read-out: Pre-emergence herbicidal activity (percentage phytotoxicity) LOLPE PRE
[9] = post-emergence, 360 h, POST-emergence, visual score 15 DAA (100%=total damage, 0%=no damage), read-out: Post-emergence herbicidal activity (percentage phytotoxicity) ALOMY POST
[10] = pre-emergence, 480 h, PRE-emergence, visual score 20 DAA (100%=total damage, 0%=no damage), read-out: Pre-emergence herbicidal activity (percentage phytotoxicity) ALOMY PRE

Row | Compound | pest or weed control at 250 g/ha (Avena fatua (AVEFA); [3]) [%] | pest or weed control at 250 g/ha (Avena fatua (AVEFA); [4]) [%] | pest or weed control at 250 g/ha [1, 5] [%] | pest or weed control at 250 g/ha [1, 6] [%] | pest or weed control at 250 g/ha (Lolium perenne (LOLPE); [7]) [%] | pest or weed control at 250 g/ha (Lolium perenne (LOLPE); [8]) [%] | pest or weed control at 250 g/ha [2, 9] [%] | pest or weed control at 250 g/ha [2, 10] [%]
1 | COCC(C)(C)NC(=O)CC1CC(=O)C(c2c(C)cc(C)cc2C)C1=O (centres unmarked) [Compound B180] | 90 | 60 | 90 | 90 | 80 | 90 | 90 | 90
2 | Cc1cc(-c2ncc(F)cc2F)cc(C)c1C1C(=O)CC(CC(=O)NCc2ccccc2)C1=O (centres unmarked) [Compound B181] | 100 | 70 | 100 | 100 | 100 | 100 | 100 | 70
3 | CC#Cc1cc(C)c(C2C(=O)CC(CC(=O)NCc3cccc(Cl)c3)C2=O)c(C)c1 (centres unmarked) [Compound B182] | 100 | 90 | 100 | 100 | 100 | 100 | 100 | 100
4 | CC#Cc1cc(C)c(C2C(=O)CC(CC(=O)NCc3cccc(F)c3)C2=O)c(C)c1 (centres unmarked) [Compound B183] | 100 | 90 | 100 | 100 | 90 | 100 | 100 | 100
5 | CC#Cc1cc(C)c(C2C(=O)CC(CC(=O)NCc3ccc(OC)cc3)C2=O)c(C)c1 (centres unmarked) [Compound B184] | 90 | 90 | 100 | 100 | 90 | 100 | 90 | 90
6 | CC#Cc1cc(C)c(C2C(=O)CC(CC(=O)NCc3ccccc3)C2=O)c(C)c1 (centres unmarked) [Compound B185] | 100 | 60 | 100 | 100 | 100 | 70 | 100 | 80
7 | CC#Cc1cc(C)c(C2C(=O)CC(CC(=O)NCc3ccc(C#N)cc3)C2=O)c(C)c1 (centres unmarked) [Compound B186] | 90 | 100 | 100 | 100 | 90 | 90 | 90 | 90
8 | C/C=C/c1cc(C)c(C2C(=O)CC(CC(=O)NCc3cccc(Cl)c3)C2=O)c(CC)c1 (centres unmarked) [Compound B187] | 70 | 10 | 100 | 80 | 90 | 80 | 70 | 70
9 | C/C=C/c1cc(C)c(C2C(=O)CC(CC(=O)NCc3cccc(F)c3)C2=O)c(CC)c1 (centres unmarked) [Compound B188] | 100 | 40 | 100 | 80 | 90 | 80 | 80 | 60
10 | C/C=C/c1cc(C)c(C2C(=O)CC(CC(=O)NCc3ccc(OC)cc3)C2=O)c(CC)c1 (centres unmarked) [Compound B189] | 90 | 40 | 100 | 80 | 90 | 80 | 90 | 60
